Laboratory results as given in ChEMBL document CHEMBL1147064 (Proc Natl Acad Sci U S A, 2007).

Key:
[1] = target: Botulinum neurotoxin type A (Clostridium botulinum, UniProt P0DPI0)
[2] = Toxicity against mouse Neuro2a cells at =>5 uM; assay type: cell-based; conditions: n2a

Sequence of Botulinum neurotoxin type A (P0DPI0 2-448 limits assumed): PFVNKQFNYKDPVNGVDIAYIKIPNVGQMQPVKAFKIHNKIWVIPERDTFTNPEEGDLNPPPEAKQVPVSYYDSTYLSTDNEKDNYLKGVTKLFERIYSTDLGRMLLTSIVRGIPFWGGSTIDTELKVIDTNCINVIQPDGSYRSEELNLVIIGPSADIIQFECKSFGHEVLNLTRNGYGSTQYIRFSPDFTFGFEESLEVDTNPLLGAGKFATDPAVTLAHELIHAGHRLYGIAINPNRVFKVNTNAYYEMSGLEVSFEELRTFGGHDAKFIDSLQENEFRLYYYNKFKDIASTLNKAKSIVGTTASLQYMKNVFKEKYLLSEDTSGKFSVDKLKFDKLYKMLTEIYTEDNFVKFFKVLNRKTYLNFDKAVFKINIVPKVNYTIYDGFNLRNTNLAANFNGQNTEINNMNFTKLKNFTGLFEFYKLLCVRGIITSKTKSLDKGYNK

Structure (SMILES) | IC50 [1] [µM] | Activity [2]
CCC1CN(C(=O)/C=C/c2ccccc2)CC(=O)N1Cc1ccc(C)cc1 (stereo not drawn) | 12.5 | 
COc1ccc(CCNC(=O)CN(CC(=O)N[C@H]2C[C@@H]2c2ccccc2)C(=O)Cn2c(C(=O)N[C@H]3CCCC[C@@H]3NC(=O)c3cc4ccccc4n3CC(=O)N(CC(=O)NCCc3ccc(OC)cc3)CC(=O)N[C@@H]3C[C@H]3c3ccccc3)cc3ccccc32)cc1 | 7.6 | 
O=C(/C=C/c1ccc(Cl)cc1Cl)NO [CINNAMIC ACID HYDROXAMATE] |  | Toxic
